Key:
Aβ42 = assay: In vivo efficacy: brain soluble Aβ42 in non-transgenic rodents (ELISA); settings: Mus musculus, dose 30 mg/kg oral dosing, brain soluble fraction, animals sacrificed after 4 h, untreated animals (Ctrl) set at 100, read-out: Aβ42 (% vs Ctrl)_Mean
Source text: (§1) To determine whether acute administration of an Aβ42 lowering agent would reduce Aβ42 levels in vivo, non-transgenic rodents, e.g. mice or rats were used. Animals treated with the Aβ42 lowering agent were examined and compared to those untreated or treated with vehicle and brain levels of soluble Aβ42 and total Aβ were quantitated by standard techniques, for example, using ELISA. Treatment periods varied from hours (h) to days and were adjusted based on the results of the Aβ42 lowering once a time course of onset of effect could be established.
(§2) A typical protocol for measuring Aβ42 lowering in vivo is shown but it is only one of many variations that could be used to optimize the levels of detectable Aβ. For example, Aβ42 lowering compounds were formulated in 20% of Captisol® (a sulfobutyl ether of β-cyclodextrin) in water or 20% hydroxypropyl β cyclodextrin. The Aβ42 lowering agents were administered as a single oral dose or by any acceptable route of administration to overnight fasted animals. After 4 h, the animals were sacrificed and Aβ42 levels were analysed.
(§3) Blood was collected by decapitation and exsanguinations in EDTA-treated collection tubes. Blood was centrifuged at 1900 g for 10 minutes (min) at 4° C. and the plasma recovered and flash frozen for later analysis. The brain was removed from the cranium and hindbrain. The cerebellum was removed and the left and right hemisphere were separated. The left hemisphere was stored at −18° C. for quantitative analysis of test compound levels. The right hemisphere was rinsed with phosphate-buffered saline (PBS) buffer and immediately frozen on dry ice and stored at −80° C. until homogenization for biochemical assays.
(§4) Mouse brains from non-transgenic animals were resuspended in 8 volumes of 0.4% DEA (diethylamine)/50 mM NaCl containing protease inhibitors (Roche-11873580001 or 04693159001) per gram of tissue, e.g. for 0.158 g brain, add 1.264 ml of 0.4% DEA. All samples were homogenized in the FastPrep-24 system (MP Biomedicals) using lysing matrix D (MPBio #6913-100) at 6 m/s for 20 seconds. Homogenates were centrifuged at 221.300×g for 50 min. The resulting high speed supernatants were then transferred to fresh eppendorf tubes. Nine parts of supernatant were neutralized with 1 part 0.5 M Tris-HCl pH 6.8 and used to quantify Aβtotal and Aβ42.
(§5) To quantify the amount of Aβtotal and Aβ42 in the soluble fraction of the brain homogenates, Enzyme-Linked-Immunosorbent-Assays were used. Briefly, the standards (a dilution of synthetic Aβ1-40 and Aβ1-42, Bachem) were prepared in 1.5 ml Eppendorf tube in Ultraculture, with final concentrations ranging from 10000 to 0.3 pg/ml. The samples and standards were co-incubated with HRPO-labelled N-terminal antibody for Aβ42 detection and with the biotinylated mid-domain antibody 4G8 for Aβtotal detection. 50 μl of conjugate/sample or conjugate/standards mixtures were then added to the antibody-coated plate (the capture antibodies selectively recognize the C-terminal end of Aβ42, antibody JRF/cAβ42/26, for Aβ42 detection and the N-terminus of Aβ, antibody JRF/rAβ/2, for Aβtotal detection). The plate was allowed to incubate overnight at 4° C. in order to allow formation of the antibody-amyloid complex. Following this incubation and subsequent wash steps the ELISA for Aβ42 quantification was finished by addition of Quanta Blu fluorogenic peroxidase substrate according to the manufacturer's instructions (Pierce Corp., Rockford, Ill.). A reading was performed after 10 to 15 min (excitation 320 nm/emission 420 nm).
In this model a Aβ42 lowering compared to untreated animals would be advantageous, in particular a Aβ42 lowering with at least 10%, more in particular a Aβ42 lowering with at least 20%.
(§6) The results are shown in Table 4 (dose 30 mg/kg oral dosing) (value for untreated animals as control (Ctrl) was set at 100): […]

Aβ38 = assay: In vivo efficacy: brain soluble Aβ38 in non-transgenic rodents (ELISA); settings: Mus musculus, dose 30 mg/kg oral dosing, brain soluble fraction, animals sacrificed after 4 h, untreated animals (Ctrl) set at 100, read-out: Aβ38 (% vs Ctrl)_Mean
Source text: as §1, with “Aβ38 increasing agents” for “Aβ42 lowering agent”, “increase Aβ38” for “reduce Aβ42”, “Aβ38” for “Aβ42”, “Aβ38 increase” for “Aβ42 lowering”
as §2, with “measuring Aβ38 increase” for “measuring Aβ42 lowering”, “example, Aβ38 increasing agents” for “example, Aβ42 lowering compounds”, “hydroxypropyl βcyclodextrin.” for “hydroxypropyl β cyclodextrin.”, “The Aβ38 increasing” for “The Aβ42 lowering”, “and Aβ38” for “and Aβ42”
as §3
as §4, with “Aβ total” for “Aβtotal”, “Aβ38.” for “Aβ42.”
as §5, with “Aβ38” for “Aβ42”, “Aβ1-38, ANASPEC)” for “Aβ1-42, Bachem)”, “Aβ38,” for “Aβ42,”, “J&JPRD/Aβ38/5,” for “JRF/cAβ42/26,”
In this model a Aβ38 increase compared to untreated animals would be advantageous, in particular a Aβ38 increase with at least 10%, more in particular a Aβ38 increase with at least 20%.
as §6

Structure (SMILES)	response vs control in vivo at 30 mg/kg (Aβ42) [%]	response vs control in vivo at 30 mg/kg (Aβ38) [%]
Cc1cn(-c2ccc3n(c2=O)CCN(C(C)c2cccc(Cl)c2Cl)C3=O)cn1 (single isomer, unassigned) [10a]	87	85
CCC1Cn2c(ccc(-n3cnc(C)c3)c2=O)C(=O)N1Cc1cc(C(F)(F)F)cc(C(F)(F)F)c1.Cl (stereo not drawn) [compound 1]	61	103
Cc1cn(-c2ccc3n(c2=O)C[C@@H](C)N(Cc2ccc(Cl)c(Cl)c2)C3=O)cn1 [compound 2]	82	129
Cc1cn(-c2ccc3n(c2=O)CC(C)N(Cc2cc(C(F)(F)F)cc(C(F)(F)F)c2)C3=O)cn1 (stereo not drawn) [compound 3]	55	137
Cc1cn(-c2ccc3n(c2=O)CCN(Cc2cccc(-c4ccccc4)c2)C3=O)cn1 [compound 5]	78	110
Cc1cn(-c2ccc3n(c2=O)CC(C)N(Cc2cc(OCC4CC4)cc(C(F)(F)F)c2)C3=O)cn1.Cl (stereo not drawn) [compound 6]	85	129
CCc1cn(-c2ccc3n(c2=O)CC(C)N(Cc2cc(C(F)(F)F)cc(C(F)(F)F)c2)C3=O)cn1.Cl (stereo not drawn) [compound 7]	73	80
Cc1cn(-c2ccc3n(c2=O)CCN(Cc2ccccc2C)C3=O)cn1 [compound 22]	106	105
Cc1cn(-c2ccc3n(c2=O)C[C@@H](C)N(Cc2cccc(C(C)(C)C)c2)C3=O)cn1 [compound 23]	122	132
Cc1cn(-c2ccc3n(c2=O)C[C@@H](C)N(Cc2ccc(C(F)(F)F)c(C(F)(F)F)c2)C3=O)cn1 [compound 46]	60	62
Cc1cn(-c2ccc3n(c2=O)C[C@@H](C)N(CCc2cc(C(F)(F)F)cc(C(F)(F)F)c2)C3=O)cn1 [compound 50]	88	110
Cc1cc(CN2C(=O)c3ccc(-n4cnc(C)c4)c(=O)n3C[C@H]2C)cc(C(F)(F)F)c1 [compound 59]	82	126
Cc1cn(-c2ccc3n(c2=O)C[C@@H](C)N(Cc2ccc(Cl)c(C(F)(F)F)c2)C3=O)cn1 [compound 62]	68	160
Cc1cn(-c2ccc3n(c2=O)C[C@@H](C)N(Cc2cc(Cl)cc(C(F)(F)F)c2)C3=O)cn1 [compound 63]	82	133
Cc1cn(-c2ccc3n(c2=O)CCN(Cc2ccc(Cl)c(C(F)(F)F)c2)C3=O)cn1 [compound 65]	104	132
Cc1cn(-c2ccc3n(c2=O)C[C@@H](C)N(Cc2cc(N4CCC(C)CC4)ccc2Cl)C3=O)cn1 [compound 80]	119	118
Cc1cn(-c2ccc3n(c2=O)C[C@@H](C)N(Cc2cc(N4CCCC4)ccc2Cl)C3=O)cn1 [compound 82]	78	120
Cc1cn(-c2ccc3n(c2=O)CCN(Cc2ccc(C)c(N4CCCCC4)c2)C3=O)cn1 [compound 99]	111	92

Reference: patent US20150141411A1, “SUBSTITUTED 3,4-DIHYDRO-2H-PYRIDO[1,2-A]PYRAZINE-1,6-DIONE DERIVATIVES USEFUL FOR THE TREATMENT OF (INTER ALIA) ALZHEIMER'S DISEASE” (Janssen Pharmaceuticals, Inc., priority 2012, published 2015)
